Target: Sodium/potassium-transporting ATPase subunit alpha-1 (Canis lupus familiaris, UniProt P50997)
Assay: Inhibition of Dog Renal Na+/K+ ATPase Activity
Procedure: Increasing concentrations of the standard ouabain, or tested compound, were incubated with 0.3 μg of purified dog kidney enzyme for 10 min at 37° C. in 120 μl final volume of a medium containing 140 mM NaCl, 3 mM MgCl2, 50 mM Hepes-Tris, 3 mM ATP, pH 7.5. Then, 10 μl of a solution containing 10 mM KCl and 20 nCi of 32P-ATP (3-10 Ci/mmol, Perkin Elmer) were added. The reaction was allowed to continue for 15 min at 37° C. and then stopped by acidification with 20% v/v ice-cold perchloric acid. 32P was separated by centrifugation with activated Charcoal (Norit A, Serva) and the radioactivity was counted. The inhibitory activity was expressed as percent of the control samples carried out in the absence of ouabain, or tested compound.

Structure (SMILES)	IC50
CCCC(=O)OCCC1CC[C@@]2(C)C(C1)[C@@H](O)C[C@@H]1[C@@H]2CC[C@]2(C)C(=O)CC[C@@H]12 (some centres not stated) [US12503484, Compound CVie217]	> 100 µM
CCCCC(C(=O)O)C1CC[C@@]2(C)C(C1)[C@H](O)C[C@@H]1[C@@H]2CC[C@]2(C)C(=O)CC[C@@H]12 (some centres not stated) [US12503484, Compound CVie219]	> 100 µM

— BindingDB's records for patent US12503484 (Seismic Pharmaceuticals, 2025)
